Blank lines part the entries; values can stand above or below the compound they belong to.
Columns and labels:
[1] = molecular target: T1, B-cell lymphoma 6 protein (Homo sapiens, UniProt P41182); test: Inhibition of human BCL6 BTP domain by ELISA assay
[2] = molecular target: Casein kinase II subunit alpha 3 (Homo sapiens, UniProt Q8NEV1); test: Inhibition of CK2 (unknown origin)
[3] = molecular target: T1, B-cell lymphoma 6 protein; test: Binding affinity to human BCL6 BTP domain assessed as dissociation constant by SPR assay
[4] = molecular target: T1, B-cell lymphoma 6 protein; test: Inhibition of human BCL6 BTP domain measured by TR-FRET assay
[5] = molecular target: T1, B-cell lymphoma 6 protein; test: Inhibition of human BCL6 BTP domain measured by cell reporter assay
[6] = molecular target: T1, B-cell lymphoma 6 protein; test: Inhibition of human BCL6 BTP domain
[7] = molecular target: T1, B-cell lymphoma 6 protein; test: Inhibition of human BCL6 BTP domain measured by fluorescence polarization assay
[8] = molecular target: T1, B-cell lymphoma 6 protein; test: Irreversible inhibition of human BCL6 BTP domain measured by TR-FRET assay
[9] = molecular target: T1, B-cell lymphoma 6 protein; test: Reversible inhibition of human BCL6 BTP domain measured by TR-FRET assay

Sequence of Casein kinase II subunit alpha 3 (Q8NEV1 whole entry, the tested form may be a part): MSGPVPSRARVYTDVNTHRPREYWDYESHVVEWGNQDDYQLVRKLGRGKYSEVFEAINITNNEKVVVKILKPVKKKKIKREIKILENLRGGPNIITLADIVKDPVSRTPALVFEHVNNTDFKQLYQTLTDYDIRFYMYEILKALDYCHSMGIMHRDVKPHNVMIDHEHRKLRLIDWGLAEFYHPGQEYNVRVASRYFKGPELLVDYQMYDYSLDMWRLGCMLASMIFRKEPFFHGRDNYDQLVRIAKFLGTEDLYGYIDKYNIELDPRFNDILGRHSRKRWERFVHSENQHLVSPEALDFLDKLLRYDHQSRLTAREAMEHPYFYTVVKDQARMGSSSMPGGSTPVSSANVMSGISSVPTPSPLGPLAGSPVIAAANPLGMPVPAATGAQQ

SMILES: CSCC[C@H](N)C(=O)N[C@@H](CO)C(=O)N[C@@H](Cc1c[nH]c2ccccc12)C(=O)N[C@@H](CCCNC(=N)N)C(=O)N[C@H](C(=O)N1CCC[C@H]1C(=O)O)C(C)C
- IC50 [1]: 620 µM

SMILES: CC(C)[C@H](NC(=O)[C@H](CCCNC(=N)N)NC(=O)[C@H](Cc1c[nH]c2ccccc12)NC(=O)[C@@H](N)CO)C(=O)N1CCC[C@H]1C(=O)O
- IC50 [1]: 1500 µM

SMILES: N#Cc1c(NCC2CC2)ccnc1Cl
- IC50 [7]: 207 µM

SMILES: Cn1c(=O)n(C)c2cc(Nc3ncccc3C#N)ccc21
- IC50 [7]: 86 µM

SMILES: Cn1c(=O)n(C)c2cc(Nc3cc(SCc4ccccc4)ncn3)ccc21
- IC50 [7]: 70 µM

SMILES: N#Cc1c(NCc2ccccc2)ccnc1Cl
- IC50 [7]: 120 µM

SMILES: Cn1c(=O)n(CCC(C)(C)O)c2cc(Nc3ccnc(Cl)c3C#N)ccc21
- IC50 [4]: 0.86 µM

SMILES: O=C1Cc2cc(Nc3nc(NCc4cccc(S(=O)(=O)F)c4)ncc3Cl)ccc2N1
- IC50 [8]: 0.251 µM

SMILES: CNC(=O)COc1cc2cc(Nc3nc(NCc4cccc(S(=O)(=O)F)c4)ncc3Cl)cc(OC)c2n(C)c1=O
- IC50 [8]: 0.152 µM

SMILES: Nc1ncnc(Nc2ccccc2)n1 [Amanozine]
- Kd [3]: 1200 µM

Other lines, results leading:

- IC50 [1]: 170 µM
SMILES: CC(=O)N[C@@H](Cc1c[nH]c2ccccc12)C(=O)N[C@@H](CCCNC(=N)N)C(=O)N[C@H](C(=O)N1CCC[C@H]1C(=O)O)C(C)C

- IC50 [2]: > 10 µM
SMILES: O=C1CCc2cc3cc(c2N1Cc1ccccc1)OC/C=C/CO[C@H]1C[C@@H](CO)N(C1)c1cc(n2ncc(Cl)c2n1)N3

- Kd [3]: 0.0065 µM
- IC50 [4]: 0.0029 µM
- IC50 [5]: 2 µM
- IC50 [2]: 0.64 µM
SMILES: N#Cc1cnn2c3cc(nc12)N1C[C@H](C[C@H]1CO)OC/C=C/COc1cc(cc2c1NC(=O)CC2)N3

- IC50 [2]: > 10 µM
SMILES: Cc1ccccc1CN1C(=O)CCc2cc3cc(c21)OC/C=C/CO[C@H]1C[C@@H](CO)N(C1)c1cc(n2ncc(Cl)c2n1)N3

- IC50 [2]: > 10 µM
SMILES: COc1cccc(CN2C(=O)CCc3cc4cc(c32)OC/C=C/CO[C@H]2C[C@@H](CO)N(C2)c2cc(n3ncc(Cl)c3n2)N4)c1

- Kd [3]: 68 µM
SMILES: Nc1ncc(Cl)c(Nc2ccccc2)n1

- Kd [3]: 690 µM
SMILES: CCNc1cc(-c2cccnc2)nc2ccnn12

- Kd [3]: 88 µM
SMILES: CN(c1ncccc1CNc1nc(Nc2ccc3c(c2)CC(=O)N3)ncc1C(F)(F)F)S(C)(=O)=O

- IC50 [6]: 0.012 µM
SMILES: CNC(=O)COc1cc2cc(Nc3nc(-n4nc(C)cc4C)ncc3Cl)ccc2n(C)c1=O

- Kd [3]: 0.5 µM
- IC50 [4]: 0.37 µM
SMILES: N#Cc1cnn2c(Nc3ccc4c(c3)CCC(=O)N4)cc(N3CCC[C@H]3CO)nc12

- Kd [3]: 1.1 µM
- IC50 [4]: 0.35 µM
SMILES: N#Cc1cnn2c(Nc3ccc4c(c3)CCC(=O)N4)cc(N3CCC[C@H]3CC(=O)O)nc12

- IC50 [9]: 0.368 µM
SMILES: CNC(=O)COc1cc2cc(Nc3nc(NCc4cccc(S(C)(=O)=O)c4)ncc3Cl)cc(OC)c2n(C)c1=O

- IC50 [6]: > 20 µM
SMILES: Cc1cc(C)n(-c2ncc(Cl)c(Nc3ccc(Cl)cc3)n2)n1

- IC50 [4]: 830 µM
SMILES: Nc1ncnc(Nc2ccccc2Cl)n1

From BindingDB's records for doi:10.1021/jm9508853 (University of Maryland, 2021)
